{"source": "patent US9597322B2", "about": "“Otamixaban for use in the treatment of non-ST elevation acute coronary syndrome in patients planned to undergo coronary artery bypass grafting” (SANOFI, priority 2012, dated 2017)", "origin": "cited, not measured here", "key": {"[1]": {"system": "prothrombin fragments 1+2", "settings": "highest dose regimen; Cohen et al. 2007; cited from earlier work"}, "thrombosis [2]": {"system": "thrombosis", "settings": "porcine; cited from earlier work"}, "thrombosis [3]": {"system": "thrombosis", "settings": "rodent; cited from earlier work"}, "thrombosis [4]": {"system": "thrombosis", "settings": "canine; cited from earlier work"}, "factor Xa": {"molecular_target": "T1, factor Xa (Homo sapiens, UniProt P00742)", "T1 construct": "host or cells: blood of patients (endogenous)", "T1 sequence (P00742 235-488 limits assumed)": "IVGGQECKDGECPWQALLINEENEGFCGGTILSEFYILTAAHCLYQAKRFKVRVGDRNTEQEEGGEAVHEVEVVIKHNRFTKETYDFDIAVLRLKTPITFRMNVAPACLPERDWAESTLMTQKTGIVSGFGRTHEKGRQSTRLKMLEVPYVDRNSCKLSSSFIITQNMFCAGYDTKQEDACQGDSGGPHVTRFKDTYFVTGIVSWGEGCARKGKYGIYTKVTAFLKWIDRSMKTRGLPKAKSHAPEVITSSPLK", "T1 sequence (P00742 41-179 partner limits assumed)": "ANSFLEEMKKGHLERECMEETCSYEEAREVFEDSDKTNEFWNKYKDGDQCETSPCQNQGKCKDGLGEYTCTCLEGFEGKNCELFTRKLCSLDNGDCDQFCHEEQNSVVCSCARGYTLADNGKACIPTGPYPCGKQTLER", "settings": "patients with stable coronary artery disease on usual comedication, some with mild renal impairment; Hinder et al. 2006; cited from earlier work"}, "free factor Xa": {"molecular_target": "free factor Xa (Homo sapiens, UniProt P00742)", "sequence (P00742 235-488 limits assumed)": "as the sequence (P00742 235-488 limits assumed) above", "sequence (P00742 41-179 partner limits assumed)": "as the sequence (P00742 41-179 partner limits assumed) above", "settings": "direct, independent of antithrombin III; cited from earlier work"}, "[5]": {"molecular_target": "factor Xa assembled in the prothrombinase complex (Factor Xa, Factor Va, calcium and phospholipid) (Homo sapiens, UniProt P00742)", "sequence (P00742 235-488 limits assumed)": "as the sequence (P00742 235-488 limits assumed) above", "sequence (P00742 41-179 partner limits assumed)": "as the sequence (P00742 41-179 partner limits assumed) above", "sequence (P12259 29-737 partner limits assumed)": "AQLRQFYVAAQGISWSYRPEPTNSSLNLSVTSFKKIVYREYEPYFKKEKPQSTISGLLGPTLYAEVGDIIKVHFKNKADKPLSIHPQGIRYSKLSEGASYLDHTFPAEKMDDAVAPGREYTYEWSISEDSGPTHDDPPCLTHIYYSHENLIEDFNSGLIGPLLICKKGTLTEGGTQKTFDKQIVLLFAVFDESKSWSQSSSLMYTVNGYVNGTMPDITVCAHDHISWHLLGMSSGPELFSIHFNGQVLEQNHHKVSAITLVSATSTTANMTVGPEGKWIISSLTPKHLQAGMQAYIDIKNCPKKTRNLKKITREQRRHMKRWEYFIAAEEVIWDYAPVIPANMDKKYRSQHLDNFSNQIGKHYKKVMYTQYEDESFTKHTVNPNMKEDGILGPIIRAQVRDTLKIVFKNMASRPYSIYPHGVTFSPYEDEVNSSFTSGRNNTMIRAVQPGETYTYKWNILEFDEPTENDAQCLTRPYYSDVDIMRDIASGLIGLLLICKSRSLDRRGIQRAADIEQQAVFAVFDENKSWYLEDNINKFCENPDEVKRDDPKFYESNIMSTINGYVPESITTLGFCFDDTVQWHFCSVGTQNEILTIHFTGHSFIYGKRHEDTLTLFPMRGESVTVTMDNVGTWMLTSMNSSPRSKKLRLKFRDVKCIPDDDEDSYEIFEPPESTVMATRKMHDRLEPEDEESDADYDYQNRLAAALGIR", "sequence (P12259 1574-2224 partner limits assumed)": "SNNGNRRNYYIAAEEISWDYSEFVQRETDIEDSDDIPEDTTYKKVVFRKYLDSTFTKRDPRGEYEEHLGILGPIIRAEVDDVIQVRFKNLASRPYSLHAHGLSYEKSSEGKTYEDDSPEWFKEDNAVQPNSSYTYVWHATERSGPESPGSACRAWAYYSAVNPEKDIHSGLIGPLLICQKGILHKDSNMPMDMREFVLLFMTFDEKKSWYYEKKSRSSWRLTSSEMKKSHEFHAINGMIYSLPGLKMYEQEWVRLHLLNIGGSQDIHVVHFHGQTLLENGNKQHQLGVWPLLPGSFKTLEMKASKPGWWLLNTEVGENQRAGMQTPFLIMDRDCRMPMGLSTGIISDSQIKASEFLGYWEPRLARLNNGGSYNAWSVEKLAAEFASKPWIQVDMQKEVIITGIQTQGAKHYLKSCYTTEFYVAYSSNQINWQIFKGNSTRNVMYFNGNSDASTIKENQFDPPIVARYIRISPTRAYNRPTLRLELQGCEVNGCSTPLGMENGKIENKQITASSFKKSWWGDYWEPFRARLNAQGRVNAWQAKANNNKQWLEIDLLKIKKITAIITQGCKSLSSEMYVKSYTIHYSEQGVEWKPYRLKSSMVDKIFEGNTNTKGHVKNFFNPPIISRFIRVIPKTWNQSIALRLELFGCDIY", "settings": "direct, independent of antithrombin III; cited from earlier work"}}, "note": "Where two headings read alike, the source gives them in different places."}
{"smiles": "COC(=O)C(Cc1cccc(C(=N)N)c1)[C@@H](C)NC(=O)c1ccc(-c2cc[n+]([O-])cc2)cc1", "note": "(mixture of isomers) [Otamixaban, (2R,3R)-2-(3-Carbamimidoyl-benzyl)-3-[4-(1-oxy-pyridin-4-yl)benzoylamino]-butyric acid methyl ester]", "values": [{"measurement": "reduction of prothrombin fragments 1+2 versus unfractionated heparin", "setting": "[1]", "value": "significantly more than unfractionated heparin"}, {"measurement": "efficacy in model of thrombosis", "setting": "thrombosis [2]", "value": "highly efficacious"}, {"measurement": "efficacy in model of thrombosis", "setting": "thrombosis [3]", "value": "highly efficacious"}, {"measurement": "efficacy in model of thrombosis", "setting": "thrombosis [4]", "value": "highly efficacious"}, {"measurement": "factor Xa inhibition in patients", "setting": "factor Xa", "value": "dose-dependent, rapid direct factor Xa inhibition"}, {"measurement": "inhibition of free factor Xa", "setting": "free factor Xa", "value": "inhibited"}, {"measurement": "inhibition of factor Xa assembled in the prothrombinase complex", "setting": "[5]", "value": "inhibited"}]}
